Tests used:
[1] = system: rats with induced experimental autoimmune myasthenia gravis (EAMG); test: Validation of EAMG model (neostigmine), grip strength; assay type: in vivo, Sprague-Dawley rats; settings: 0.2 mg/kg intraperitoneally, 5 minutes after treatment
Description: Female Sprague-Dawley rats (200-300 g) were purchased from Charles River Laboratories and given a minimum 72 hours acclimation period. Experimental autoimmune Myasthenia Gravis (EAMG) was induced by a single intra-peritoneal injection of 500 μg/kg of AChRα1/3/5 antibody (SC-58604, Santa Cruz Biotechnology, CA, USA). Fore- and hind-limb grip measurements were acquired in triplicate with a 5 kg Dual Sensor Grip Meter (Columbus Instruments, Ohio, USA) as described in Example 1. Baseline body weight and fore- and hind-grip strength of animals was measured before inducing EAMG.
Selected rats were divided into vehicle and compound treated groups. Neostigmine (an acetylcholinesterase inhibitor that is used clinically for the assessment and treatment of myasthenia gravis) was administered to test animals intraperitoneally at 0.2 mg/kg. After dosing, rats were reassessed for grip strength at 5, 10 and 20 minutes.

SKM MF = SKM MF AC1.4: ATPase of skeletal sarcomeric proteins (actin, tropomyosin, troponin complex, myosin), PK/LDH coupled enzyme system; assay type: biochemical; settings: screen at pCa=6.5; † mean value, ‡ median value
Description: For example, test compounds can be assayed in a highly parallel fashion by using multiwell plates by placing the compounds either individually in wells or testing them in mixtures. Assay components including the target protein complex, coupling enzymes and substrates, and ATP can then be added to the wells and the absorbance or fluorescence of each well of the plate can be measured with a plate reader.
In some embodiments, the method uses a 384 well plate format and a 25 μL reaction volume. A pyruvate kinase/lactate dehydrogenase coupled enzyme system (Huang T G and Hackney D D. (1994) J Biol Chem 269(23):16493-501) can be used to measure the rate of ATP hydrolysis in each well. As will be appreciated by those in the art, the assay components are added in buffers and reagents. The incubation periods can be optimized to give adequate detection signals over the background. The assay can be done in real time giving the kinetics of ATP hydrolysis which increases the signal to noise ratio of the assay.
Actin was purified by first preparing an ether powder of cardiac muscle (Zot H G and Potter J D. (1981) Preparative Biochemistry 11:381-395) as described below. Subsequently, actin was cycled between the filamentous and soluble state through rounds of centrifugation and dialysis (Spudich J A and Watt S. (1971) J. Biol. Chem. 246:4866-4871). It was stored in the filamentous state at 4° C.
Tropomyosin was extracted from the ether powder and separated from the other proteins based on pH dependent precipitations followed by successive ammonium sulfate cuts at 53% and 65% (Smillie L B. (1981) Methods Enzymol 85 Pt B:234-41). The troponins were isolated as an intact complex of TnC, TnT, and TnI. Ether powder is extracted in a high salt buffer. Successive ammonium sulfate cuts of 30% and 45% were done; the precipitate was solubilized by dialysis into a low salt buffer and then further purified on a DEAE Toyopearl column with a 25-350 mM KCl gradient.
Just prior to screening, the actin, tropomyosin, and troponin complex are mixed together in the desired ratio (e.g., 7:1:1) to achieve maximal calcium regulation of the actin filament. The screen is conducted at a pCa=6.5. This calcium concentration is in the physiological range during muscle contraction.
To measure the generation of ADP during the reaction, a pyruvate kinase/lactate dehydrogenase/NADH coupled enzyme system (PK/LDH) is added to the actin. The myosin is kept separately. The plates are read in real time so that kinetic curves are obtained. These compounds are in DMSO and were already spotted onto the bottoms of 384 well plates at 10 to 40 μg/ml final concentration.
• 1. Obtain ˜1000 g skeletal muscle, such as rabbit skeletal muscle. • 2. Grind twice; extract with 2 L solution A for 15 min while stirring; add 4 L cold H2O, filter through gauze; dilute with cold H2O to ionic strength of 0.04, (about 10-fold); let settle for 3 h; collect precipitate at 7,000 rpm in GSA rotor for 15 min. • 3. Disperse pellet in 220 ml solution B; dialyze overnight against 6 L solution C; slowly add ˜400 ml equal volume cold distilled H2O; stir for 30 min; centrifuge at 10,000 rpm for 10 min in GSA rotor. • 4. Centrifuge supernatant at 19,000 rpm for 1 h. • 5. Dilute supernatant to ionic strength of 0.04 (˜8-fold); let myosin settle overnight; collect about 5-6 L fluffy myosin precipitate by centrifuging at 10,000 rpm for 10 min in GSA rotor. • 6. Resuspend pellet in minimal volume of solution G; dialyze overnight against 2 L solution D; centrifuge at 19,000 rpm for 2 h, in cellulose nitrate tubes; puncture tubes and separate myosin from fat and insoluble pellet. • 7. Dilute supernatant to 5-10 mg/ml and dialyze against solution E extensively, load onto DEAE-sephadex column. • 8. […]

CN(C)C(=O)Oc1cccc([N+](C)(C)C)c1 [neostigmine]
forelimb grip strength (FIG. 2) [1]: increased forelimb grip strength

1-(ethylpropyl)-6-(methylethyl)imidazo[4,5-b]pyrazin-2-ol
SKM MF AC1.4 (SKM MF): 29.6 µM

C/C=C\c1cnc2nc(O)n(C(C)C)c2n1 [(Z)-1-isopropyl-6-(prop-1-enyl)-1H-imidazo[4,5-b]pyrazin-2-ol]
SKM MF AC1.4 (SKM MF): 4.6 µM

CCC(CC)n1c(O)nc2ncc(O)nc21 [1-(pentan-3-yl)-1H-imidazo[4,5-b]pyrazine-2,6-diol]
SKM MF AC1.4 (SKM MF): >49 µM

CCC(CN1CCOCC1)n1c(O)nc2nccnc21 (stereo not shown) [1-(1-morpholinobutan-2-yl)-1H-imidazo[4,5-b]pyrazin-2-ol]
SKM MF AC1.4 (SKM MF): >49 µM

CCC(CNC)n1c(O)nc2ncc(Br)nc21 (stereo not shown) [6-bromo-1-(1-(methylamino)butan-2-yl)-1H-imidazo[4,5-b]pyrazin-2-ol]
SKM MF AC1.4 (SKM MF): 45.7 µM

C[C@@H](c1ccccc1)n1c(O)nc2ncc(Br)nc21 [(S)-6-bromo-1-(1-phenylethyl)-1H-imidazo[4,5-b]pyrazin-2-ol]
SKM MF AC1.4 (SKM MF): 0.45 µM
